From patent US20210046097A1, “NEUTRAL ENDOPEPTIDASE (NEP) AND HUMAN SOLUBLE ENDOPEPTIDASE (hSEP) INHIBITORS FOR PROPHYLAXIS AND TREATMENT OF EYE DISEASES” (FORTY-FOUR PHARMACEUTICALS SP. Z.O.O, priority 2018, published 2021)

Assays:
[1] = test system: doxorubicin-induced apoptosis in the liver; assay: Doxorubicin-induced apoptosis in rat liver (TUNEL staining, stereological disector); type: in vivo
Text: (§1) Apoptosis is a significant component of cell death in optic and/or eye diseases including (i) all forms of primary and secondary glaucoma, preferably such as e.g. primary open-angle glaucoma, normal-tension glaucoma, primary angle-closure glaucoma, pseudoexfoliation syndrome and glaucoma, pigment dispersion syndrome and glaucoma, neovascular glaucoma, inflammatory glaucoma, lens-related glaucoma, traumatic glaucoma, primary congenital glaucoma, iatrogenic induced glaucoma, and malignant glaucoma (R. Agarwal, S. K. Gupta, P. Agarwal, R. Saxena & S. S. Agrawal (2009) Indian J. Ophthalmol. 57, 257-266); (ii) aquired macular disorders, preferably such as e.g. age-related macular degeneration, idiopathic choroidal neovascularisation, central serous chorioretinopathy, vitreomacular interface disorders, idiopathic macular telangiectasia, cystoid macular oedema, and microcystic macular oedema (J. L. Dunaief, T. Dentchev, G.-S. Ying & A. H. Milam (2002) Arch. Ophthalmol. 120, 1435-1442); (iii) optic neuropathy, preferably such as e.g. anterior or posterior ischemic optic neuropathy (B. J. Slater, Z. Mehrabian, Y. Guo, A. Hunter & S. L. Bernstein (2008) Invest. Ophthalmol. Vis. Sci. 49, 3671-3676); (iv) optic neuritis (K. S. Shindler, E. Ventura, M. Dutt & A. Rostami (2008) Exp.Eye Res. 87, 208-213); (v) uveitis, preferably such as e.g. anterior uveitis, intermediate uveitis, posterior uveitis, and panuveitis (C.-C. Chan, D. M. Matteson, Q. Li, S. M. Whitcup & R. B. Nussenblatt (1997) Arch. Ophthalmol. 115, 1559-1567); (vi) hereditary fundus dystrophies, preferably such as e.g. retinitis pigmentosa, cone dystrophy, cone-rod dystrophy, rod dystrophy, Stargardt's disease, Bietti's crystalline corneoretinal dystrophy, familial benign fleck retina, Best vitelliform macular dystrophy, adult-onset vitelliform macular dystrophy, North Carolina macular dystrophy, familial dominant drusen, and concentric annular macular dystrophy (H. Zhang, X. Li, X. Dai, J. Han, Y. Zhang, Y. Qi, Y. He, Y. Liu, B. Chang & J. J. Pang (2017) J. Ophthalmol. 2017, 1-13 9721362); (vii) retinal vascular diseases, preferably such as e.g. diabetic retinopathy, non-diabetic retinopathy, retinal venous occlusive disease, retinal arterial occlusive disease, ocular ischemic syndrome, hypertensive eye disease, sickle cell retinopathy, thalassemia retinopathy, retinopathy of prematurity, retinal artery macroaneurysm, primary retinal telangiectasia, Eales disease, and radiation retinopathy (G. Donati, A. Kapetanios, M. Dubois-Dauphin & C. J. Pournaras (2008) Acta Ophthalmol. 86, 302-306); (viii) scleritis or episcleritis (C. Heinz, N. Bograd, J. Koch & A. Heiligenhaus (2013) Graefes Arch. Clin. Exp. Ophthalmol. 251, 139-142); (ix) retinal detachments (J. G. Arroyo, L. Yang, D. Bula & D. F. Chen (2005) Am. […]

[2] = test system: doxorubicin-induced apoptosis in retinal ganglion cells; assay: Doxorubicin-induced apoptosis in rat retinal ganglion cells (intravitreal doxorubicin, TUNEL staining, stereological disector); type: in vivo
Text: as §1

[3] = 60 mg/kg/d s.c., result in words
[4] = vs doxorubicin + vehicle, 60 mg/kg/d s.c.

**Q.** What does the source list for O=C(O)CN1C(=O)[C@@H](NC(=O)C2(C[C@@H](CCc3ccccc3)C(=O)O)CCCC2)CCc2ccccc21 [Example (6), (2R)-2-{[1-({[(3S)-1-(carboxymethyl)-2-oxo-2,3,4,5-tetrahydro-1H-1-benzazepin-3-yl]amino}carbonyl)cyclopentyl]methyl}-4-phenylbutanoic acid]?
**A.** Protection against doxorubicin induced apoptosis in the liver (reduction of Nv of TUNEL positive cells vs vehicle) [1, 3]: significant protection; Nv, number of TUNEL positive cells, liver ([1]; Wistar rats, 60 mg/kg/d s.c. osmotic minipump, doxorubicin 5 mg/kg i.p. t.i.d. days 1-3, 5 days after first injection, mean ± SEM): 7.93 ± 0.25 TUNEL positive cells×10^2/mm^3; Nv as % of doxorubicin + vehicle, liver ([1]; Wistar rats, 60 mg/kg/d s.c. osmotic minipump, doxorubicin 5 mg/kg i.p. t.i.d. days 1-3, day 5): 76.54%; Decrease of density of apoptotic cells in the rat liver [1, 4]: 23.46%; Protection against doxorubicin induced apoptosis in the retina (reduction of Nv of TUNEL positive cells vs vehicle) [2, 3]: significant protection; Nv, number of TUNEL positive cells, retinal ganglion cells (RGC) ([2]; Wistar rats, 60 mg/kg/d s.c. osmotic minipump, doxorubicin 5 μg into vitreous body day 1, 5 days after, mean ± SEM): 33.64 ± 0.96 TUNEL positive cells×10^3/mm^3; Nv as % of doxorubicin + vehicle, RGC ([2]; Wistar rats, 60 mg/kg/d s.c. osmotic minipump, doxorubicin 5 μg into vitreous body day 1, day 5): 91.79%; Decrease of density of apoptotic cells in the retina [2, 4]: 8.21%
